{
  "source": "patent US8617546B2",
  "about": "“Anticancer agent comprising anti-PD-1 antibody or anti-PD-L1 antibody” (Seoul National University Industry Foundation, priority 2008, dated 2013)",
  "key": {"anergic iNKT cells [1]": {"tested_on": "anergic iNKT cells", "test": "Recovery of responsiveness of anergic iNKT cells in vitro (cytokine ELISA of supernatants)", "format": "cell-based, C57BL/6 mice", "conditions": "pre-treatment with 2 μg α-GC 7 days before restimulation, in presence of control IgG; FIG. 5", "method": "The α-GC-induced unresponsiveness of iNKT cells was detected as early as 3 days after primary stimulation and observed to persist until 7~30 days after α-GC stimulation. Thus, C57BL/6 mice were injected with 2 μg of α-GC to induce iNKT cell anergy. One week and one month later, splenocytes were isolated from the mice and 5×10^5 cells were incubated for 3 days with 100 ng/ml of α-GC in the presence of 50 μg/ml of the control rat IgG, the anti-PD-1 mAb, the anti-PD-L1 mAb, or the anti-PD-L2 mAb. Also, splenocytes isolated from the mice were incubated for 3 days with 10 ng/ml of α-GC without mAb, and these were represented by ‘activation’. The supernatants were then assayed for IFN-γ and IL-4 levels by ELISA [*:p<0.05 and **:p<0.01 (vs. control rat IgG)]."}, "anergic iNKT cells [2]": {"tested_on": "anergic iNKT cells", "test": "Recovery of responsiveness of anergic iNKT cells in vivo: serum cytokines after secondary α-GC injection", "parameters": "species or system C57BL/6 mice", "conditions": "2 μg α-GC, re-injection 14 days later; FIG. 6", "method": "200 μg of the control rat IgG, the anti-PD-1 antibody or the anti-PD-L1 antibody was intraperitoneally injected into C57BL/6 mice 24 hrs before treatment with 2 μg of α-GC. 14 days later, 2 μg of α-GC was injected again, followed by the preparation of sera 2 and 12 hrs after the re-injection for ELISA assay of IL-4 and IFN-γ levels, respectively."}, "iNKT cells [3]": {"tested_on": "iNKT cells", "test": "Expression of PD-1 and PD ligands on iNKT cells after α-GC administration (FACS)", "format": "in vivo, C57BL/6 mice", "conditions": "FIG. 1", "method": "Splenocytes were isolated from C57BL/6 mice administered with 2 μg of α-GC at different time points (0 hr, 6 hrs, 72 hrs, 7 days, one month and two months) after the administration. The cells were stained with a PE-conjugated anti-PD-1 monoclonal antibody, a PE-conjugated anti-PD-L1 monoclonal antibody, a PE-conjugated anti-PD-L2 monoclonal antibody and a PE-conjugated isotype control monoclonal antibody, respectively. iNKT cells were gated on B220^− TCR-β^intα-GC/CD1d:Ig^+ population. PD-1, PD-L1 and PD-L2 expression (open histograms) was analyzed by FACS. Shaded histograms indicate staining with isotype control niAbs."}, "iNKT cells [4]": {"tested_on": "iNKT cells", "test": "iNKT cell activation in vivo: serum IFN-γ and IL-4 by ELISA after α-GC treatment", "parameters": "species or system C57BL/6 mice", "conditions": "2 μg α-GC; FIG. 3", "method": "C57BL/6 mice was injected with 200 μg of the control rat IgG, the anti-PD-1 mAb, the anti-PD-L1 mAb or the anti-PD-L2 mAb 24 hrs before treatment with 2 μg of α-GC. Sera were obtained at 0, 2, 6, 12, 24, 48 and 72 hrs after the treatment, followed by ELISA analysis for IFN-γ and IL-4 levels."}, "[5]": {"tested_on": "B16F10 melanoma metastasis", "test": "B16F10 melanoma metastasis model with anergy-induced iNKT cells: number of pulmonary nodules", "format": "in vivo, C57BL/6 mice", "conditions": "anergy induced with control IgG and α-GC; α-GC treatment during tumor inoculation; FIG. 10", "method": "Anergy-induced iNKT cells were assayed for the recovery of anti-tumor activity by the antibodies of the present invention. In this regard, naive C57BL/6 mice were intraperitoneally injected with 200 μg of the control rat IgG, the anti-PD-1 antibody or the anti-PD-L1 antibody 24 hrs after which injection with 2 μg of α-GC induced iNKT cell anergy. 7 days later, 5×10^5 B16F10 tumor cells were i.v. injected. On Day 0, 4 and 8, the mice were treated with 500 ng of α-GC to induce anti-tumor activity of iNKT cells. 14 days later, the lungs were excised and the nodules formed by cancer metastasis were counted (A). The isolated lungs were observed under an optical microscope (B)."}},
  "data": [
    {"smiles": "CCCCCCCCCCCCCCCCCCCCCCCCCC(=O)N[C@@H](CO[C@H]1O[C@H](CO)[C@H](O)[C@H](O)[C@H]1O)[C@H](O)[C@H](O)CCCCCCCCCCCCCC", "note": "[α-GC, α-galactosylceramide]", "values": [
      {"measurement": "production of IFN-γ on restimulation after α-GC pre-treatment", "setting": "anergic iNKT cells [1]", "value": "greatly decrease"},
      {"measurement": "production of IL-4 on restimulation after α-GC pre-treatment", "setting": "anergic iNKT cells [1]", "value": "greatly decrease"},
      {"measurement": "serum IFN-γ upon secondary α-GC injection in mice pretreated with α-GC", "setting": "anergic iNKT cells [2]", "value": "significantly low"},
      {"measurement": "serum IL-4 upon secondary α-GC injection in mice pretreated with α-GC", "setting": "anergic iNKT cells [2]", "value": "significantly low"},
      {"measurement": "PD-L1 expression on iNKT cells", "setting": "iNKT cells [3]; after 2 μg α-GC", "value": "temporarily increased"},
      {"measurement": "persistence of the upregulated PD-1 level on iNKT cells", "setting": "iNKT cells [3]; after 2 μg α-GC", "value": "for two months"},
      {"measurement": "time for PD-L1 expression to decline toward naive state levels", "setting": "iNKT cells [3]; after 2 μg α-GC", "value": "≤ 72", "unit": "h"},
      {"measurement": "PD-L2 expression on iNKT cells", "setting": "iNKT cells [3]; regardless of activation status", "value": "not found"},
      {"measurement": "PD-1 expression on iNKT cells", "setting": "iNKT cells [3]; splenocytes after 2 μg α-GC, 0 hr to two months", "value": "upregulated"},
      {"measurement": "time of peak blood IFN-γ level after α-GC treatment", "setting": "iNKT cells [4]", "value": "≤ 12", "unit": "h"},
      {"measurement": "time of peak blood IL-4 level after α-GC treatment", "setting": "iNKT cells [4]", "value": "≤ 2", "unit": "h"},
      {"measurement": "tumor growth / metastasis with anergic iNKT cells", "setting": "[5]", "value": "did not suppress tumor growth"}
    ]}
  ]
}
